Data taken from ChEMBL document CHEMBL1250538 (Bioorg Med Chem, 2010).

Experiments:
Homo sapiens [1] = species on record: Homo sapiens; assay: Toxicity in chronic CML patient assessed as cytogenetic response; format: organism-based; details: in vivo
Homo sapiens [2] = species on record: Homo sapiens; assay: Toxicity in chronic CML patient assessed as maximum tolerated dose; format: organism-based; details: in vivo
[3] = Antiproliferative activity against mouse M-NFS-60 cells; format: functional, cell-based
[4] = Antiproliferative activity mouse BA/F3 cells in presence of interleukin 3; format: functional, cell-based; details: BaF3
[5] = Antiproliferative activity against BCR-ABL1 transfected mouse BA/F3 cells; format: functional, cell-based; details: BaF3
[6] = Antiproliferative activity against PDGFRbeta transfected mouse BA/F3 cells; format: functional, cell-based; details: BaF3
K562 = assay: Antiproliferative activity against human K562 cells; format: functional, cell-based
[7] = Antiproliferative activity against human GIST882 cells; format: functional, cell-based

SMILES	Activity (Homo sapiens [1])	MTD (Homo sapiens [2]) [mg]	IC50 [3] [nM]	IC50 [4] [nM]	IC50 [5] [nM]	IC50 [6] [nM]	IC50 (K562) [nM]	IC50 [7] [nM]
Cc1ccc(NC(=O)c2ccc(CN3CCN(C)CC3)cc2)cc1Nc1nccc(-c2cccnc2)n1 [IMATINIB]	Non-toxic	400	358	9460	678	39	244	108
Cc1cn(-c2cc(NC(=O)c3ccc(C)c(Nc4nccc(-c5cccnc5)n4)c3)cc(C(F)(F)F)c2)cn1 [NILOTINIB]	–	–	838	> 10000	25	62	21	151
